Experimental data from patent US11124788B2, “Asx-specific protein ligase” (NANYANG TECHNOLOGICAL UNIVERSITY, priority 2014, dated 2021).
Where two headings read alike, the source gives them in different places. Residues, ends and D or L forms follow the SMILES beside them. *: point of attachment. AMC = Cc1cc(=O)oc2cc(N*)ccc12; Cbz = O=C(OCc1ccccc1)*

Assays:
butelase 1 [1] = experiment: Michaelis-Menten kinetics of butelase 1 as a peptide cyclase; format: biochemical, Clitoria ternatea
butelase 1 [2] = experiment: Hydrolysis of Z-AAN-AMC by butelase 1 (asparaginyl endopeptidase activity); format: biochemical, Clitoria ternatea; conditions: 50 mM Z-AAN-AMC, 30 h
jack bean legumain = biological target: T1, jack bean legumain (Canavalia ensiformis, UniProt P49046); experiment: Hydrolysis of Z-AAN-AMC by jack bean legumain (positive control); format: biochemical; conditions: same experimental conditions, 30 h
T1 construct: purchased Takara Bio (Japan)
T1 sequence (P49046 36-475): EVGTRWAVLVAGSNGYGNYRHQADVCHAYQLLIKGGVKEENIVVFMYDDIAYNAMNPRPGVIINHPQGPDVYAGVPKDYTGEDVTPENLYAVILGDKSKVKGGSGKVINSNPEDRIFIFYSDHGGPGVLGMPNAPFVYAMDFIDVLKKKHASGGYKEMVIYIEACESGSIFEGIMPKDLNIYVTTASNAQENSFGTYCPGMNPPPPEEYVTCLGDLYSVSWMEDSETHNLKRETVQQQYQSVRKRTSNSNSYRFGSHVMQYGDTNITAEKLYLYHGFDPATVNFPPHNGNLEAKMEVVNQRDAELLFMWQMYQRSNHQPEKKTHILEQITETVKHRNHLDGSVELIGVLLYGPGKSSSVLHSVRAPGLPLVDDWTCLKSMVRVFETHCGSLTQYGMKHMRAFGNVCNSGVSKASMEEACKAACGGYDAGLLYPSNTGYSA

butelase 1 [3] = experiment: In vitro cyclization of peptide/protein substrates by butelase 1 (HPLC/MS yield); format: biochemical, Clitoria ternatea
[4] = Storage stability of purified butelase 1; conditions: 30 days at 4° C.
[5] = Solubility of butelase 1 in water
[6] = butelase 1 cyclization, 37° C., 0.125 μM enzyme, 12 min (SA-kB1-NHV: 5 nM, 6 min)

## Apelin
Butelase 1 [1]
  Km: 6.7 ± 1.4 µM
  kcat: 5.78 ± 0.25 s⁻¹

## Neuromedin ∪
Butelase 1 [1]
  Km: 8.7 ± 2.1 µM
  kcat: 5.78 ± 0.36 s⁻¹

## Cc1cc(=O)oc2cc(NC(=O)[C@H](CC(N)=O)NC(=O)[C@H](C)NC(=O)[C@H](C)NC(=O)OCc3ccccc3)ccc12 [Z-AAN-AMC, N-carbobenzyloxy-Ala-Ala-Asn-7-amido-4-methylcoumarin] (Cbz-Ala-Ala-Asn-{AMC})
Butelase 1 [2]
  Hydrolyzed product formed (RP-HPLC): < 3%
Jack bean legumain
  Hydrolysis of Z-AAN-AMC: completely hydrolyzed

## SFTI-NHV: SEQ ID NO:135, GRCTKSIPPICFPNHV; 16-residue linear substrate
Butelase 1 [3]
  Cyclization efficiency, SFTI-NHV compared with SFTI-DHV: significantly more efficient
Butelase 1 [1]; [6]
  Km: 51 ± 4 µM
  kcat: 0.6 ± 0.02 s⁻¹
Butelase 1 [1]; butelase 1 cyclization, 37° C., 0.125 μM enzyme, 12 min (SA-kB1-NHV: 5 nM, 6 min), listed as SFT1-NHV
  kcat: 0.6 ± 0.02 s⁻¹

B1: butelase 1: Asx-specific peptide ligase/cyclase isolated from Clitoria ternatea, amino acid sequence SEQ ID NO:1 (protein, listed as Clitoria ternatea)
chain: VEGTRWAVLVAGSKGYVNYRHQADVCHAYQILKKGGLKDENIIVFMYDDIAYNESNPHPGVIINHPYGSDVYKGVPKDYVGEDINPPNFYAVLLANKSALTGTGSGKVLDSGPNDHVFIYYTDHGGAGVLGMPSKPYIAASDLNDVLKKKHASGTYKSIVFYVESCESGSMFDGLLPEDHNIYVMGASDTGESSWVTYCPLQHPSPPPEYDVCVGDLFSVAWLEDCDVHNLQTETFQQQYEVVKNKTIVALIEDGTHVVQYGDVGLSKQTLFVYMGTDPANDNNTFTDKNSLGTPRKAVSQRDADLIHYWEKYRRAPEGSSRKAEAKKQLREVMAHRMHIDN
[4]
  Stability of enzyme activity: minimal loss of activity
Butelase 1 [3]; GFP as a model protein
  Catalytic rate relative to sortase A: ~10,000
[5]
  Solubility in water (concentration achieved): 10000 µg/mL
Butelase 1 [1]; highest value stated in the summary
  Catalytic activities: ≤ 542,000 M^−s^−1
